Assays:
Nodal protein [1] = experiment: Western blot of Nodal protein (ProNodal) in acute lymphoblastic leukemia cell line REH; format: cell-based; details: REH cells, 72 hr treatment
Source text: Treatment of the cells for 72 hr with CVM-1125 reduced Nodal protein expression by 38%, while under the same treatment regimen the drug Ara-c reduced Nodal protein expression by 51%, Ws65 reduced Nodal protein by 90%, a combination of CVM-1125 plus WS65 reduced Nodal protein by 75% and Ara-c plus WS65 reduced Nodal protein by 69%.

Nodal protein [2] = experiment: Western blot of Nodal protein expression in SK-MEL28 melanoma cells; format: cell-based, human; details: 72 hours treatment
Experimental: (§1) Human metastatic melanoma cell lines C8161, SK-MEL28 and A375SM-L1 and melanocytes were treated with anti-Nodal or anti-ABCA1 antibodies followed by secondary fluorescent antibodies. (A) Cells were viewed using a Zeiss Axioskop 2 microscope and photomicrographs taken comparing immunofluorescence staining of the melanoma cells versus melanocytes (negative control) and cells treated with secondary antibody only (antibody control; magnification 63×). All three aggressive melanoma cell lines express both Nodal and ABCA1 proteins. (B) Furthermore, whole cell protein lysates were prepared from the C8161, SK-MEL28 and A375SM-L1 cells and Western blot analysis verified the expression of both Nodal and ABCA1 proteins at their appropriate molecular weight equivalence. β-Actin protein was used to determine the equal loading of total protein per sample per lane on the Western blot.
(§2) (A) After 72 hr treatment with WS65, an anti-Nodal inhibitory antibody, there is a 94% reduction in Nodal protein expression and 55% reduction in the ABCA1 protein expression. […] Similar treatment with WS65 results in a 55% decrease in Nodal protein expression and 38% decrease in ABCA1 protein expression while treatment with both CVM-1125 and WS65 for 72 hr appears to synergistically reduce the expression of Nodal protein by 81% and ABCA1 protein by 99%.

ABCA1 protein = experiment: Western blot of ABCA1 protein expression in SK-MEL28 melanoma cells; format: cell-based, human; details: 72 hours treatment
Experimental: as §1, §2

Nodal = Nodal in experimental TNBC models after doxorubicin; details: three experimental TNBC models expressing high levels of Nodal

SMILES | reduced Nodal protein expression (Nodal protein [1]) [%] | decrease in Nodal protein expression (Nodal protein [2]) [%] | decrease in ABCA1 protein expression (ABCA1 protein) [%] | effect on the Nodal target (Nodal)
Nc1ccn([C@@H]2O[C@H](CO)[C@@H](O)[C@@H]2O)c(=O)n1 [Ara-c, reference compound] | 51 | – | – | –
COc1ccc2[nH]c(-c3cccc(F)c3)cc(=O)c2c1O [CVM-1125] | 38 | 19 | 14 | –
COc1cccc2c1C(=O)c1c(O)c3c(c(O)c1C2=O)C[C@@](O)(C(=O)CO)C[C@@H]3O[C@H]1C[C@H](N)[C@H](O)[C@H](C)O1 [doxorubicin] | – | – | – | did not effectively diminish
